Laboratory results: ChEMBL document CHEMBL1128607, “Structure-based design of novel HIV protease inhibitors: carboxamide-containing 4-hydroxycoumarins and 4-hydroxy-2-pyrones as potent nonpeptidic inhibitors” (J Med Chem, 1995)

Each molecule was assayed against Human immunodeficiency virus type 1 protease (Human immunodeficiency virus 1, UniProt Q72874) (assay: Ability to inhibit HIV protease purified and refolded from Escherichia coli inclusion bodies).
For `CCC(Cc1ccccc1)c1cc(O)c(C(c2cccc(NC(=O)Cc3ccncc3)c2)C2CC2)c(=O)o1` (stereo not drawn), the Ki was 44 nM. For `CCC(Cc1ccccc1)c1cc(O)c(C(c2cccc(NC(=O)[C@H](Cc3c[nH]cn3)NC(=O)OC(C)(C)C)c2)C2CC2)c(=O)o1` (stereo partly drawn), the Ki was 4 nM. `CCC(c1cccc(C(=O)N[C@H](C(=O)NCc2ccccn2)C(C)CC)c1)c1c(O)oc2ccccc2c1=O` (stereo partly drawn) was tested, and the Ki was 400 nM. With `CCC(c1cccc(C(=O)NCc2nc3ccccc3[nH]2)c1)c1c(O)oc2ccccc2c1=O` (stereo not drawn) the Ki was 4400 nM. With `CCC(c1cccc(NC(=O)CCNC(=O)OC(C)(C)C)c1)c1c(O)oc2cc(OC)ccc2c1=O` (stereo not drawn) the Ki was 170 nM. Work on `CC(C)(C)OC(=O)NCCC(=O)Nc1cccc(C(c2c(O)oc3ccccc3c2=O)C2CC2)c1` (stereo not drawn) yielded a Ki of 86 nM. `COc1ccc2c(O)c(C(c3ccccc3)C3CC3)c(=O)oc2c1` (stereo not drawn) showed a Ki of 170 nM. Molecule `CCC(Cc1ccccc1)c1cc(O)c(C(c2cccc(NC(=O)[C@H](C)NC(=O)OC(C)(C)C)c2)C2CC2)c(=O)o1` (stereo partly drawn) has a Ki of 15 nM. `CCC(Cc1ccccc1)c1cc(O)c(C(c2cccc(NC(=O)[C@H](Cc3cn(S(=O)(=O)c4ccc(C)cc4)cn3)NC(=O)OC(C)(C)C)c2)C2CC2)c(=O)o1` (stereo partly drawn) was tested, and the Ki was 19 nM. Molecule `O=c1oc2ccccc2c(O)c1C(c1ccccc1)C1CC1` (stereo not drawn) has a Ki of 350 nM. For `CCC(c1cccc(NC(=O)CCNC(=O)OC(C)(C)C)c1)c1c(O)c2ccccc2oc1=O` (stereo not drawn), the Ki was 280 nM. In the case of `CCC(c1cccc(NC(=O)[C@H](C)NC(=O)OC(C)(C)C)c1)c1c(O)c2ccccc2oc1=O` (stereo partly drawn), the Ki is reported as 170 nM. Molecule `CCC(c1cccc(NC(=O)CCCNC(=O)OC(C)(C)C)c1)c1c(O)c2ccccc2oc1=O` (stereo not drawn) has a Ki of 1600 nM. For `CCC(c1ccccc1)c1c(O)c2ccc(OC)cc2oc1=O` (stereo not drawn), the Ki was 560 nM. `CCC(c1cccc(NC(=O)[C@@H]2CCCN2C(=O)OC(C)(C)C)c1)c1c(O)c2ccccc2oc1=O` (stereo partly drawn) gave a Ki of 3600 nM. `CCC(c1cccc(NC(=O)CCn2ccc3ccccc32)c1)c1c(O)c2ccccc2oc1=O` (stereo not drawn) showed a Ki of 110 nM. Work on `CCC(c1cccc(NC(=O)CNC(=O)OC(C)(C)C)c1)c1c(O)c2ccccc2oc1=O` (stereo not drawn) yielded a Ki of 160 nM. Work on `COc1ccc2c(O)c(C(c3cccc(NC(=O)CCNC(=O)OC(C)(C)C)c3)C3CC3)c(=O)oc2c1` (stereo not drawn) yielded a Ki of 28 nM.
